# Results reported in patent publication US20220160712A1, “METHODS OF TREATING RHEUMATOID ARTHRITIS AND FOR PREDICTING THE RESPONSE TO METHOTREXATE” (CHAN ZUCKERBERG BIOHUB, INC., priority 2020, published 2022).
# Columns and labels:
# human gut microbiota = test: MTX treatment of gnotobiotic mice colonized with human stool; 16S-seq and qPCR of gut microbiota; format: in vivo; conditions: for gut microbial community structure, ANOSIM R: p=0.006; for shift in gut microbiota, ANOSIM R: Day 0 vs. 2
# B. theta = test: RNA-seq after MTX treatment; format: cell-based, Bacteroides thetaiotaomicron; conditions: MTX 100 μg/ml
# Procedure: (§1) Genomes were obtained from NCBI's GenBank Assembly database. Culture media was composed of BHI+and allowed to equilibrate in an anaerobic environment prior to use. Briefly, bacteria were cultured in BHI+at 37° C. in an anaerobic chamber. Cultures for each isolate were grown to mid-exponential (achieving an OD600˜0.5), aliquoted into triplicates, treated for 30 minutes with either DMSO or MTX 100 μg/ml, and then removed from the anaerobic chamber. […]
# (§2) Total RNA was subjected to rRNA depletion using Ribo-Zero Bacterial rRNA Depletion (Illumina, catalog #: MRZB12424), following the manufacturer's protocol. […] For each sample, fastq files are available in NCBI's Sequence Read Archive (SRA), accession number PRJNA656577.
# (§3) Reads were trimmed using Trimmomatic (v0.32) (Bolger, A. M., et al., (2014), Bioinformatics 30, 2114-2120), and ribosomal reads were removed using SortMeRNA (v2.1) (Kopylova, E., et al., (2012), Bioinformatics 28, 3211-3217). Reads were mapped to reference genomes using Bowtie2 (Langmead, B., and Salzberg, S. L. (2012), Nat Methods 9, 357-359) using the following options: -q, —met file, —end-to-end, —sensitive. […]
# C. symbiosum = test: RNA-seq after MTX treatment; format: cell-based, Clostridium symbiosum; conditions: MTX 100 μg/ml, 30 minutes; padj<0.2, DESeq
# Procedure: as §1, §2, §3
# C. asparagiforme = test: RNA-seq after MTX treatment, with time course; format: cell-based, Clostridium asparagiforme; conditions: MTX 100 μg/ml
# Procedure: Genomes were obtained from NCBI's GenBank Assembly database. Culture media was composed of BHI+and allowed to equilibrate in an anaerobic environment prior to use. Briefly, bacteria were cultured in BHI+at 37° C. in an anaerobic chamber. Cultures for each isolate were grown to mid-exponential (achieving an OD600˜0.5), aliquoted into triplicates, treated for 30 minutes with either DMSO or MTX 100 μg/ml, and then removed from the anaerobic chamber. The mid-exponential time point was selected to facilitate comparisons across isolates, as has been done by others (O'Rourke, A., et al. (2020), Antimicrob Agents Chemother 64), since lag and stationary phases would present challenges in term of biomass (lag phase with low biomass) and differing physiology (i.e., sporulation among some isolates and not others). For C. asparagiforme, cultures were incubated for 4 and 20 hours as well and profiled. Cultures were centrifuged at 2000 rpm for 10 minutes at 4° C. to facilitate removal of supernatant, and the remaining bacterial pellet was flash-frozen in liquid nitrogen.
# Each bacterial pellet was incubated with 1 ml of Tri reagent (Sigma Aldrich, catalog #: T9424) at room temperature for 10 minutes. The cell suspension was transferred into Lysing Matrix E tubes (MP Biomedicals, 116914050), and homogenized in a bead-beater (Mini-Beadbeater-24, BioSpec) for 5 minutes at room temperature. The sample was incubated with 200 μL of chloroform at room temperature for 10 minutes, followed by centrifugation at 16,000×g for 15 minutes at 4° C. Next, 500 μL of the upper aqueous phase was transferred into a new tube and 500 μL of 100% ethanol was added. To isolate RNA, PureLink RNA Mini Kit (Life Technologies, catalog #: 12183025) was used. This mixture was transferred onto a PureLink spin column and spun at >12,000×g for 30 seconds. The column was washed with 350 μl of wash buffer I as described in the PureLink manual. The column was incubated with 80 μl of PureLink DNase (Life Technologies, catalog #: 12185010) at room temperature for 15 minutes, and washed with 350 μl of wash buffer I. The column was washed with wash buffer II twice as described in the PureLink manual. Total RNA was recovered in 50 μl of RNAase-free water. A second round of off-column DNAse treatment was undertaken. The RNA was incubated with 6 μl of TURBO DNAse (Ambion, ThermoFisher, catalog #: AM2238) at 37° C. for 30 minutes. To stop the reaction, 56 μl of lysis buffer from the PureLink kit and 56 μl of 100% ethanol was added to the sample and vortexed. This suspension was transferred onto a PureLink column and washed once with 350 μl of wash buffer I and twice with 500 μl of wash buffer II. The RNA was recovered in 30 μl of RNAse-free water.
# as §2, §3
# [1] = Targeted LC-MS for MTX in RA donor stool samples used for fecal transplant; design: species or system human; conditions: limit of quantification 100 nM
# [2] = MTX 1 mg/kg or 50 mg/kg daily, short treatment durations (2-4 days)
# Source text: C57BL/6J mice (females, ages 6-16 weeks) were obtained from the UCSF Gnotobiotics core facility (gnotobiotics.ucsf.edu) and housed in gnotobiotic isolators for the duration of each experiment (Class Biologically Clean). […] Housing: Mice were co-housed in some experiments, distributed across multiple cages per treatment group, or individually housed. Individually housed mice were housed in Single Mouse Duplexed Cages (Thoren, Cat #15). Colonization: Mice were colonized with stool from human donors, either a healthy male donor or a treatment-naive (re-MTX) female and male donors with rheumatoid arthritis [as defined by American College of Rheumatology classification criteria, either (Arnett, F. C., et al. (1988), Arthritis Rheum 31, 315-324) or (Aletaha, D., et al. (2010), Arthritis Rheum 62, 2569-2581)]; samples obtained 1 month after starting MTX were used for “post-MTX” transplants. For colonization with a human microbiome, stool was diluted 1:10 g/mL in reduced PBS or saline and homogenized in an anaerobic chamber using pre-equilibrated reagents and supplies. Insoluble material was separated from supernatant by centrifugation at 50 g for 1 minute. Aliquots of supernatant (100-200 μl per mouse) were gavaged into mice. […] Mice were monitored and weighed daily during treatment. […]
# [3] = newly diagnosed RA patients; cited from earlier work
# [4] = Donor 2, individually housed mice, MTX 50 mg/kg
# [5] = combined gnotobiotic experiments, multi-factor design, padj<0.05, DESeq
smiles,measurement,setting,value
"CN(Cc1cnc2nc(N)nc(N)c2n1)c1ccc(C(=O)N[C@@H](CCC(=O)O)C(=O)O)cc1 [MTX, methotrexate]",Total colonization (16S copy number per gram stool),"human gut microbiota; Donor 1 (healthy) humanized mice, oral vehicle, 1 mg/kg or 50 mg/kg MTX, 4 days",comparable between groups
same,microbial richness (number of ASVs),"human gut microbiota; Donor 1 humanized mice, oral vehicle, 1 mg/kg or 50 mg/kg MTX, 4 days",comparable between groups
same,number of low-dose ASVs also altered in a consistent direction in the high-dose group,"human gut microbiota; Donor 1 mice, 1 mg/kg and 50 mg/kg",19
same,"gut microbial community structure, ANOSIM R","human gut microbiota; Donor 1 mice, after 1 day of treatment",0.60
same,"gut microbial community structure, ANOSIM R","human gut microbiota; Donor 1 mice, final day of treatment",0.75
same,number of bacterial genera altered,"human gut microbiota; Donor 1 mice, high-dose MTX 50 mg/kg",14
same,Bacteroidetes phylum compared to vehicle controls,"human gut microbiota; Donor 1 mice, high-dose MTX 50 mg/kg oral, Day 4 DESeq padj=0.001",significantly decreased
same,number of amplicon sequence variants (ASVs) altered,"human gut microbiota; Donor 1 mice, high-dose MTX 50 mg/kg, DESeq padj<0.01, Day 4",81
same,number of ASVs significantly altered,"human gut microbiota; Donor 1 mice, low-dose MTX 1 mg/kg",26
same,"Bacteroidetes longitudinal trend, slope (generalized linear mixed-effects model)","human gut microbiota; Donor 1 mice, p=0.007",−0.066
same,Microbial richness,"human gut microbiota; Donor 2 (treatment naive RA patient), individually housed mice, MTX 50 mg/kg, p=0.4",comparable between groups
same,number of ASVs with changed abundance,human gut microbiota; [4],23
same,number of genera with changed abundance,human gut microbiota; [4],8
same,phylum level changes,human gut microbiota; [4],No phylum level changes were detected
same,ASV23 (Bacteroides faecichinchillae/faecis/finegoldii/thetaiotaomicron) abundance,"human gut microbiota; Donor 2, individually housed mice, high-dose MTX (FIG. 7B)",reduced
same,ASV296 (Lachnoclostridium) abundance,"human gut microbiota; Donor 2, individually housed mice, high-dose MTX (FIG. 7C)",reduced
same,Dielma fastidiosa (ASV72) abundance,"human gut microbiota; Donor 2, individually housed mice, high-dose MTX (FIG. 7D)",decreased
same,ASV908 (Paraprevotella) abundance,"human gut microbiota; Donor 2, individually housed mice, high-dose MTX (FIG. 7E)",increased
same,number of ASVs with consistent shifts overlapping between route and rescue,"human gut microbiota; Donor 3 mice, MTX 50 mg/kg",41
same,"shift in gut microbiota, ANOSIM R","human gut microbiota; Donor 3 mice, rescue experiment (oral MTX with or without folic acid), p=0.002",0.99
same,"shift in gut microbiota, ANOSIM R","human gut microbiota; Donor 3 mice, route experiment (oral or IP MTX 50 mg/kg), p=0.007",0.89
same,number of ASVs differentially abundant,human gut microbiota; [5],61
same,number of genera differentially abundant,human gut microbiota; [5],31
same,number of phyla differentially abundant,human gut microbiota; [5],Four
same,a-diversity,"human gut microbiota; combined gnotobiotic experiments, p>0.05, ANOVA",not affected
same,genes in the transcriptome affected,"B. theta; 30 minutes, padj<0.2, DESeq",83%
same,number of pathways enriched among differentially expressed transcripts,B. theta; transcripts with padj<0.2,57 pathways
same,number of differentially expressed genes,C. symbiosum,55 genes
same,number of pathways enriched,C. asparagiforme,23 pathways
same,number of differentially expressed genes,"C. asparagiforme; 30 minutes, padj<0.2, DESeq",468 genes
same,number of transcripts differentially expressed at all three timepoints,"C. asparagiforme; 30 minutes, 4 and 20 hours, padj<0.2, DESeq",41
same,DHFR or AICAR transformylase expression,C. asparagiforme; time course,no significant differences
same,adenylosuccinate synthase (ADSS) expression,C. asparagiforme; time course,significantly upregulated
same,MTX in pre-MTX and post-MTX stool samples from RA donors,[1],not detected
same,weight loss,[2],minimal weight loss
same,patients with a robust response without escalation of therapy,[3],~33%
